Experimental data from ChEMBL document CHEMBL3994622, “Design and synthesis of new RAF kinase-inhibiting antiproliferative quinoline derivatives. Part 2: Diarylurea derivatives” (Eur J Med Chem, 2017).

How the values were obtained:
Format in all cases: functional
SF-295 [1] = assay: Growth inhibition of human SF295 cells assessed as cell growth at 10 uM incubated for 48 hrs by sulforhodamine B assay relative to control; conditions: SF-295, 48 h, read-out: Activity
UACC-257 [2] = assay: Growth inhibition of human UACC257 cells assessed as cell growth at 10 uM incubated for 48 hrs by sulforhodamine B assay relative to control; conditions: UACC-257, 48 h, read-out: Activity
HCC 2998 = assay: Growth inhibition of human HCC2998 cells assessed as cell growth at 10 uM incubated for 48 hrs by sulforhodamine B assay relative to control; conditions: HCC 2998, 48 h, read-out: Activity
SNB-75 [3] = assay: Growth inhibition of human SNB75 cells assessed as cell growth at 10 uM incubated for 48 hrs by sulforhodamine B assay relative to control; conditions: SNB-75, 48 h, read-out: Activity
MDA-MB-435 = assay: Growth inhibition of human MDA-MB-435 cells assessed as cell growth at 10 uM incubated for 48 hrs by sulforhodamine B assay relative to control; conditions: MDA-MB-435, 48 h, read-out: Activity
CAKI-1 = assay: Growth inhibition of human Caki1 cells assessed as cell growth at 10 uM incubated for 48 hrs by sulforhodamine B assay relative to control; conditions: CAKI-1, 48 h, read-out: Activity
OVCAR-5 = assay: Growth inhibition of human OVCAR5 cells assessed as cell growth at 10 uM incubated for 48 hrs by sulforhodamine B assay relative to control; conditions: OVCAR-5, 48 h, read-out: Activity
NCI-H226 = assay: Growth inhibition of human NCI-H226 cells assessed as cell growth at 10 uM incubated for 48 hrs by sulforhodamine B assay relative to control; conditions: NCI-H226, 48 h, read-out: Activity
UO-31 = assay: Growth inhibition of human UO31 cells assessed as cell growth at 10 uM incubated for 48 hrs by sulforhodamine B assay relative to control; conditions: UO-31, 48 h, read-out: Activity
HT-29 = assay: Growth inhibition of human HT-29 cells assessed as cell growth at 10 uM incubated for 48 hrs by sulforhodamine B assay relative to control; conditions: HT-29, 48 h, read-out: Activity
BT-549 = assay: Growth inhibition of human BT549 cells assessed as cell growth at 10 uM incubated for 48 hrs by sulforhodamine B assay relative to control; conditions: BT-549, 48 h, read-out: Activity
HOP-62 = assay: Growth inhibition of human HOP62 cells assessed as cell growth at 10 uM incubated for 48 hrs by sulforhodamine B assay relative to control; conditions: HOP-62, 48 h, read-out: Activity
NCI-H522 = assay: Growth inhibition of human NCI-H522 cells assessed as cell growth at 10 uM incubated for 48 hrs by sulforhodamine B assay relative to control; conditions: NCI-H522, 48 h, read-out: Activity
MCF7 = assay: Growth inhibition of human MCF7 cells assessed as cell growth at 10 uM incubated for 48 hrs by sulforhodamine B assay relative to control; conditions: MCF7, 48 h, read-out: Activity
IGROV-1 = assay: Growth inhibition of human IGROV1 cells assessed as cell growth at 10 uM incubated for 48 hrs by sulforhodamine B assay relative to control; conditions: IGROV-1, 48 h, read-out: Activity
K562 [4] = assay: Growth inhibition of human K562 cells assessed as cell growth at 10 uM incubated for 48 hrs by sulforhodamine B assay relative to control; conditions: K562, 48 h, read-out: Activity
SK-MEL-2 = assay: Growth inhibition of human SK-MEL-2 cells assessed as cell growth at 10 uM incubated for 48 hrs by sulforhodamine B assay relative to control; conditions: SK-MEL-2, 48 h, read-out: Activity
HCT-116 = assay: Growth inhibition of human HCT116 cells assessed as cell growth at 10 uM incubated for 48 hrs by sulforhodamine B assay relative to control; conditions: HCT-116, 48 h, read-out: Activity
MDA-MB-231 = assay: Growth inhibition of human MDA-MB-231 cells assessed as cell growth at 10 uM incubated for 48 hrs by sulforhodamine B assay relative to control; conditions: MDA-MB-231, 48 h, read-out: Activity
UACC-62 = assay: Growth inhibition of human UACC62 cells assessed as cell growth at 10 uM incubated for 48 hrs by sulforhodamine B assay relative to control; conditions: UACC-62, 48 h, read-out: Activity
MDA-MB-468 = assay: Growth inhibition of human MDA-MB-468 cells assessed as cell growth at 10 uM incubated for 48 hrs by sulforhodamine B assay relative to control; conditions: MDA-MB-468, 48 h, read-out: Activity
COLO 205 = assay: Growth inhibition of human COLO205 cells assessed as cell growth at 10 uM incubated for 48 hrs by sulforhodamine B assay relative to control; conditions: COLO 205, 48 h, read-out: Activity
OVCAR-3 = assay: Growth inhibition of human OVCAR3 cells assessed as cell growth at 10 uM incubated for 48 hrs by sulforhodamine B assay relative to control; conditions: OVCAR-3, 48 h, read-out: Activity
A498 = assay: Growth inhibition of human A498 cells assessed as cell growth at 10 uM incubated for 48 hrs by sulforhodamine B assay relative to control; conditions: A498, 48 h, read-out: Activity
CCRF-CEM = assay: Growth inhibition of human CCRF-CEM cells incubated for 48 hrs by sulforhodamine B assay
SNB-75 [5] = assay: Growth inhibition of human SNB75 cells incubated for 48 hrs by sulforhodamine B assay; conditions: SNB-75, 48 h
UACC-257 [6] = assay: Growth inhibition of human UACC257 cells incubated for 48 hrs by sulforhodamine B assay; conditions: UACC-257, 48 h
SR = assay: Growth inhibition of human SR cells incubated for 48 hrs by sulforhodamine B assay
SF-295 [7] = assay: Growth inhibition of human SF295 cells incubated for 48 hrs by sulforhodamine B assay; conditions: SF-295, 48 h
M14 = assay: Growth inhibition of human M14 cells incubated for 48 hrs by sulforhodamine B assay; conditions: M14, 48 h
K562 [8] = assay: Growth inhibition of human K562 cells incubated for 48 hrs by sulforhodamine B assay; conditions: K562, 48 h
PC-3 = assay: Growth inhibition of human PC3 cells incubated for 48 hrs by sulforhodamine B assay; conditions: PC-3, 48 h
[9] = read-out: LC50 (the source's name)

COc1cc2cc(Sc3ccc(NC(=O)Nc4ccc(Cl)c(Cl)c4)cc3)c(C)nc2cc1OC
growth at 10 µM (SF-295 [1]): 56.5%
growth at 10 µM (UACC-257 [2]): 90%
growth at 10 µM (HCC 2998): 101%
growth at 10 µM (SNB-75 [3]): 86.4%
growth at 10 µM (MDA-MB-435): 76.7%
growth at 10 µM (CAKI-1): 64.5%
growth at 10 µM (OVCAR-5): 84.7%
growth at 10 µM (NCI-H226): 90.9%
growth at 10 µM (UO-31): 62.8%
growth at 10 µM (HT-29): 91.9%
growth at 10 µM (BT-549): 77.8%
growth at 10 µM (HOP-62): 92.6%
growth at 10 µM (NCI-H522): 66%
growth at 10 µM (MCF7): 75.3%
growth at 10 µM (IGROV-1): 75.3%
growth at 10 µM (K562 [4]): 52.5%
growth at 10 µM (SK-MEL-2): 72.6%
growth at 10 µM (HCT-116): 67.9%
growth at 10 µM (MDA-MB-231): 87.9%
growth at 10 µM (UACC-62): 69.5%
growth at 10 µM (MDA-MB-468): 55.1%
growth at 10 µM (COLO 205): 87.8%
growth at 10 µM (OVCAR-3): 73%
growth at 10 µM (A498): 73%

COc1cc2cc(Oc3ccc(NC(=O)Nc4cc(C(F)(F)F)cc(C(F)(F)F)c4)cc3)c(C)nc2cc1OC
growth at 10 µM (SF-295 [1]): -59.2%
growth at 10 µM (UACC-257 [2]): -4.68%
growth at 10 µM (HCC 2998): 21.3%
GI50 (CCRF-CEM): 0.64 µM
TGI (CCRF-CEM): 3.47 µM
CC50 (CCRF-CEM; [9]): > 100 µM
growth at 10 µM (SNB-75 [3]): 9.73%
GI50 (SNB-75 [5]): 1.73 µM
TGI (SNB-75 [5]): 5.05 µM
CC50 (SNB-75 [5]; [9]): > 100 µM
growth at 10 µM (MDA-MB-435): -2.55%
growth at 10 µM (CAKI-1): 6.4%
growth at 10 µM (OVCAR-5): 14.6%
GI50 (UACC-257 [6]): 2.48 µM
TGI (UACC-257 [6]): 5.49 µM
CC50 (UACC-257 [6]; [9]): 20 µM
growth at 10 µM (NCI-H226): -10.2%
growth at 10 µM (UO-31): 11.6%
GI50 (SR): 1.62 µM
TGI (SR): 5.97 µM
CC50 (SR; [9]): > 100 µM
growth at 10 µM (HT-29): 4.89%
growth at 10 µM (BT-549): 1.44%
growth at 10 µM (HOP-62): -54.1%
GI50 (SF-295 [7]): 0.48 to 0.481 µM
TGI (SF-295 [7]): 1.94 µM
CC50 (SF-295 [7]; [9]): 5.71 µM
growth at 10 µM (NCI-H522): -33.4%
growth at 10 µM (MCF7): 0.59%
growth at 10 µM (IGROV-1): 19.9%
growth at 10 µM (SK-MEL-2): -30.4%
growth at 10 µM (HCT-116): 3.73%
growth at 10 µM (MDA-MB-231): -36.1%
growth at 10 µM (UACC-62): -34.6%
growth at 10 µM (MDA-MB-468): -8.12%
growth at 10 µM (COLO 205): -81.2%
GI50 (M14): 1 µM
TGI (M14): 2.88 µM
CC50 (M14; [9]): 8.25 µM
GI50 (K562 [8]): 0.57 µM
LC50 (concentration killing 50% of cells) (K562 [8]): 17 µM
TGI (K562 [8]): 2.53 µM
GI50 (PC-3): 0.42 µM
TGI (PC-3): 2.48 µM
CC50 (PC-3; [9]): 32.4 µM
growth at 10 µM (OVCAR-3): 1.71%
growth at 10 µM (A498): -11.5%

COc1cc2cc(Oc3ccc(NC(=O)Nc4ccccc4)cc3)c(C)nc2cc1OC
growth at 10 µM (SF-295 [1]): 54%
growth at 10 µM (UACC-257 [2]): 92.4%
growth at 10 µM (HCC 2998): 105%
growth at 10 µM (SNB-75 [3]): 75.8%
growth at 10 µM (MDA-MB-435): 89.4%
growth at 10 µM (CAKI-1): 88.7%
growth at 10 µM (OVCAR-5): 99.7%
growth at 10 µM (NCI-H226): 39.8%
growth at 10 µM (UO-31): 65.9%
growth at 10 µM (HT-29): 48.9%
growth at 10 µM (BT-549): 104%
growth at 10 µM (HOP-62): 103%
growth at 10 µM (NCI-H522): 67.2%
growth at 10 µM (MCF7): 72.8%
growth at 10 µM (IGROV-1): 103%
growth at 10 µM (K562 [4]): 42.8%
growth at 10 µM (SK-MEL-2): 78.8%
growth at 10 µM (HCT-116): 42.6%
growth at 10 µM (MDA-MB-231): 80%
growth at 10 µM (UACC-62): 88.4%
growth at 10 µM (MDA-MB-468): 35.3%
growth at 10 µM (COLO 205): 85.7%
growth at 10 µM (OVCAR-3): 67.1%
growth at 10 µM (A498): 54%
